# Like-named read-outs stand apart in the source and are kept apart here.
# Tests used:
# Escherichia coli R-82 = experiment: antibacterial spectrum, minimal inhibitory concentration; assay type: cell-based; details: R82, resistance mechanism APH(3')II
# [1] = tested on: Bacillus subtilis ATCC 6633; experiment: as above; assay type: cell-based; details: ATCC6633
# [2] = tested on: Pseudomonas aeruginosa A3; experiment: as above; assay type: cell-based
# [3] = tested on: Staphylococcus aureus 209P JC-1; experiment: as above; assay type: cell-based
# [4] = tested on: Pseudomonas aeruginosa TI-13; experiment: as above; assay type: cell-based
# From the text: | Resistance mechanism: ^a APH(3')I,
# [5] = tested on: Pseudomonas aeruginosa No. 12; experiment: as above; assay type: cell-based
# [6] = tested on: Pseudomonas aeruginosa No. 99; experiment: as above; assay type: cell-based
# Bacillus anthracis = experiment: microbe, parasite or virus in culture; assay type: cell-based; details: read-out: Minimal inhibitory concentration
# Streptococcus faecalis = experiment: antibacterial spectrum, minimal inhibitory concentration; assay type: cell-based; details: Enterococcus faecalis
# [7] = tested on: Proteus inconstans GN1554; experiment: as above; assay type: cell-based; details: Providencia alcalifaciens
# [8] = tested on: Pseudomonas aeruginosa GN315; experiment: as above; assay type: cell-based
# Escherichia coli R-81 = experiment: as above; details: R81, read-out: Minimal inhibitory concentration
# [9] = tested on: Escherichia coli K-12 ML1410; experiment: as above; assay type: cell-based; details: K12ML1410
# Serratia marcescens = experiment: as above; assay type: cell-based; details: read-out: Minimal inhibitory concentration
# Escherichia coli R-101 = experiment: as above; assay type: cell-based
# Escherichia coli R-176 = experiment: as above; assay type: cell-based; details: R176, resistance mechanism AAC(3)II
# [10] = tested on: Escherichia coli JR88/W677; experiment: as above; assay type: cell-based; details: resistance mechanism AAC(3)I
# [11] = tested on: Escherichia coli NIHJ JC-2; experiment: as above; assay type: cell-based
# Bacillus cereus = experiment: as above; assay type: cell-based
# [12] = tested on: Klebsiella pneumoniae PCI 602; experiment: as above; assay type: cell-based
# [13] = tested on: Pseudomonas aeruginosa TK-157; experiment: as above; assay type: cell-based
# [14] = tested on: Pseudomonas aeruginosa K-11; experiment: as above; assay type: cell-based
# Proteus vulgaris OX-19 = experiment: as above; assay type: cell-based
# [15] = Pseudomonas aeruginosa, A3, read-out: Minimal inhibitory concentration
# [16] = Pseudomonas aeruginosa, TI13, read-out: Minimal inhibitory concentration
# [17] = Pseudomonas aeruginosa No. 99, resistance mechanism AAC(3)I, read-out: Minimal inhibitory concentration
# [18] = Proteus inconstans GN1554, resistance mechanism AAC(2'), read-out: Minimal inhibitory concentration
# [19] = Pseudomonas aeruginosa GN315, resistance mechanism AAC(6')IV, read-out: Minimal inhibitory concentration
# [20] = R101, Escherichia coli R-101, resistance mechanism AAD(2"), read-out: Minimal inhibitory concentration
# [21] = NIHJJC2, Escherichia coli NIHJ JC-2, read-out: Minimal inhibitory concentration
# [22] = Klebsiella pneumoniae, PCI602, read-out: Minimal inhibitory concentration
# [23] = TK157, Pseudomonas aeruginosa TK-157, resistance mechanism APH(3')II, read-out: Minimal inhibitory concentration
# [24] = K11, Pseudomonas aeruginosa K-11, read-out: Minimal inhibitory concentration
# [25] = OX19, Proteus vulgaris OX-19, read-out: Minimal inhibitory concentration
# [26] = TI13, Pseudomonas aeruginosa TI-13, resistance mechanism APH(3')I, read-out: Minimal inhibitory concentration
# [27] = GN1554, read-out: Minimal inhibitory concentration
# [28] = Pseudomonas aeruginosa, GN315, read-out: Minimal inhibitory concentration
# [29] = Pseudomonas aeruginosa, TK157, read-out: Minimal inhibitory concentration
# [30] = Pseudomonas aeruginosa A3, read-out: Minimal inhibitory concentration
# [31] = Pseudomonas aeruginosa, NO.99, read-out: Minimal inhibitory concentration
# [32] = Escherichia coli, R101, read-out: Minimal inhibitory concentration
# [33] = Escherichia coli, NIHJJC2, read-out: Minimal inhibitory concentration
# [34] = PCI602, Klebsiella pneumoniae PCI 602, read-out: Minimal inhibitory concentration
# [35] = Pseudomonas aeruginosa, K11, read-out: Minimal inhibitory concentration
# [36] = Proteus vulgaris, OX19, read-out: Minimal inhibitory concentration
SMILES,MIC (Escherichia coli R-82),MIC [1],"MIC [2, 15]",MIC [3],MIC [5],"MIC [6, 17]",MIC (Bacillus anthracis),MIC (Streptococcus faecalis),MIC (Escherichia coli R-81),MIC [9],MIC (Serratia marcescens),MIC (Escherichia coli R-176),MIC [10],MIC (Bacillus cereus),"MIC [13, 23]","MIC [14, 24]",MIC (Proteus vulgaris OX-19; [25]),"MIC [7, 27]",MIC (Escherichia coli R-101; [32]),"MIC [12, 34]",other results
"CC(N)C1CCC(N)C(OC2C(N)CC(O[C@@H]3O[C@H](CO)[C@@H](O)[C@H](O)[C@H]3O)C(N(C)C(=O)CN)C2O)O1 (stereo partly drawn) [D, 5-de-O-methyl-5-O-(β-D-glucopyranosyl)-KA-6606 I]",12.5 µg/mL,0.39 µg/mL,12.5 µg/mL,0.78 µg/mL,0.78 µg/mL,25 µg/mL,0.2 µg/mL,> 100 µg/mL,12.5 µg/mL,12.5 µg/mL,3.13 µg/mL,3.13 µg/mL,3.13 µg/mL,6.25 µg/mL,6.25 µg/mL,25 µg/mL,6.25 µg/mL,–,–,–,"MIC [4, 16]: 12.5 µg/mL; MIC [7, 18]: 25 µg/mL; MIC [8, 19]: 25 µg/mL; MIC (Escherichia coli R-101; [20]): 6.25 µg/mL; MIC [11, 21]: 6.25 µg/mL; MIC [12, 22]: 3.13 µg/mL"
"CC(N)C1CCC(N)C(OC2C(N)CC(O[C@H]3O[C@H](CO)[C@@H](O)[C@H](N)[C@H]3O)C(N(C)C(=O)CN)C2O)O1 (stereo partly drawn) [E, 5-O-(3-amino-3-deoxy-α-D-glucopyranosyl)-5-de-O-methyl-KA-6606 I]",6.25 µg/mL,0.2 µg/mL,6.25 µg/mL,0.39 µg/mL,0.39 µg/mL,12.5 µg/mL,0.2 µg/mL,50 µg/mL,6.25 µg/mL,6.25 µg/mL,1.56 µg/mL,6.25 µg/mL,1.56 µg/mL,0.78 µg/mL,–,3.13 µg/mL,3.13 µg/mL,6.25 µg/mL,–,–,"MIC [4, 26]: 3.13 µg/mL; MIC [8, 28]: 6.25 µg/mL; MIC (Escherichia coli R-101; [20]): 3.13 µg/mL; MIC [11, 21]: 3.13 µg/mL; MIC [12, 22]: 1.56 µg/mL; MIC [13, 29]: 1.56 µg/mL"
"CC(N)C1CCC(N)C(OC2C(N)CC(OCC(O)CN)C(N(C)C(=O)CN)C2O)O1 (stereo not drawn) [A, 5-O-(3-amino-2-hydroxypropyl)-5-de-O-methyl-KA-6606 I]",3.13 µg/mL,0.2 µg/mL,–,0.39 µg/mL,0.39 µg/mL,–,≤ 0.1 µg/mL,50 µg/mL,3.13 µg/mL,3.13 µg/mL,1.56 µg/mL,6.25 µg/mL,6.25 µg/mL,0.78 µg/mL,1.56 µg/mL,–,–,6.25 µg/mL,3.13 µg/mL,1.56 µg/mL,"MIC [2, 30]: 1.56 µg/mL; MIC [4, 16]: 3.13 µg/mL; MIC [6, 31]: 6.25 µg/mL; MIC [8, 28]: 3.13 µg/mL; MIC [11, 33]: 3.13 µg/mL; MIC [14, 35]: 3.13 µg/mL; MIC (Proteus vulgaris OX-19; [36]): 3.13 µg/mL"
"CC(N)C1CCC(N)C(OC2C(N)CC(OCC(O)CCN)C(N(C)C(=O)CN)C2O)O1 (stereo not drawn) [B, 5-O-(4-amino-2-hydroxybutyl)-5-de-O-methyl-KA-6606 I]",3.13 µg/mL,≤ 0.1 µg/mL,3.13 µg/mL,0.39 µg/mL,0.39 µg/mL,–,≤ 0.1 µg/mL,50 µg/mL,3.13 µg/mL,3.13 µg/mL,1.56 µg/mL,6.25 µg/mL,3.13 µg/mL,1.56 µg/mL,–,–,–,6.25 µg/mL,3.13 µg/mL,1.56 µg/mL,"MIC [4, 16]: 3.13 µg/mL; MIC [6, 31]: 6.25 µg/mL; MIC [8, 28]: 6.25 µg/mL; MIC [11, 33]: 3.13 µg/mL; MIC [13, 29]: 3.13 µg/mL; MIC [14, 35]: 6.25 µg/mL; MIC (Proteus vulgaris OX-19; [36]): 3.13 µg/mL"
"CC(N)C1CCC(N)C(OC2C(N)CC(OCC(O)CO)C(N(C)C(=O)CN)C2O)O1 (stereo not drawn) [C, 5-de-O-methyl-5-O-(2,3-dihydroxypropyl)-KA-6606 I]",6.25 µg/mL,0.2 µg/mL,6.25 µg/mL,0.39 µg/mL,1.56 µg/mL,25 µg/mL,≤ 0.1 µg/mL,100 µg/mL,6.25 µg/mL,6.25 µg/mL,3.13 µg/mL,6.25 µg/mL,6.25 µg/mL,3.13 µg/mL,12.5 µg/mL,12.5 µg/mL,3.13 µg/mL,6.25 µg/mL,6.25 µg/mL,0.78 µg/mL,"MIC [4, 26]: 12.5 µg/mL; MIC [8, 19]: 12.5 µg/mL; MIC [11, 21]: 3.13 µg/mL"
"COC1CC(N)C(OC2OC(C(C)N)CCC2N)C(O)C1N(C)C(=O)CN (stereo not drawn) [KA-6606 I, reference compound]",3.13 µg/mL,0.2 µg/mL,–,0.39 µg/mL,0.39 µg/mL,> 100 µg/mL,0.2 µg/mL,25 µg/mL,3.13 µg/mL,3.13 µg/mL,3.13 µg/mL,3.13 µg/mL,> 100 µg/mL,1.56 µg/mL,6.25 µg/mL,12.5 µg/mL,1.56 µg/mL,–,3.13 µg/mL,1.56 µg/mL,"MIC [2, 30]: 6.25 µg/mL; MIC [4, 26]: 6.25 µg/mL; MIC [7, 18]: 6.25 µg/mL; MIC [8, 19]: 12.5 µg/mL; MIC [11, 33]: 3.13 µg/mL"
